Measurements published in PMC4414715 (Chemico-biological interactions, 2014).

Tests used:
ALDH1A2 [1] = molecular target: T1, ALDH1A2 (Homo sapiens, UniProt O94788); experiment: DEAB inhibition and IC50 determination; type: biochemical
T1 sequence (O94788 1-518): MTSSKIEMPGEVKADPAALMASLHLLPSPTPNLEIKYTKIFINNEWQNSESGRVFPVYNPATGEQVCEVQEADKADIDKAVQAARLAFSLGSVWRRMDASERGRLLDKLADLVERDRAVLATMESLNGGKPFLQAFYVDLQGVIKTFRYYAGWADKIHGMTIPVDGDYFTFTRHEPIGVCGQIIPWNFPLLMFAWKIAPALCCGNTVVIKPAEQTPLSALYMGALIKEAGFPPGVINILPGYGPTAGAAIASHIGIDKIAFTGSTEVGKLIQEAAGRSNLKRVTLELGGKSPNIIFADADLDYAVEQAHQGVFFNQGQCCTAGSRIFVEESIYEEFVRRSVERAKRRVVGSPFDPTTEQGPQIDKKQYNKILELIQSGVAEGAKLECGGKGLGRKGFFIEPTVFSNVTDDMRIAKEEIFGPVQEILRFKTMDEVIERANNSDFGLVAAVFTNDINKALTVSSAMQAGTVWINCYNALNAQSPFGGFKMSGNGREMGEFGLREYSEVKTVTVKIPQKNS

ALDH1A2 [2] = molecular target: T1, ALDH1A2; experiment: Kinetics of irreversible; type: biochemical
ALDH1B1 [3] = molecular target: T2, ALDH1B1 (Homo sapiens, UniProt P30837); experiment: Wavelength scans to monitor DEAB oxidation; type: biochemical; conditions: DEAB as substrate of ALDH1B1
T2 sequence (P30837 18-517): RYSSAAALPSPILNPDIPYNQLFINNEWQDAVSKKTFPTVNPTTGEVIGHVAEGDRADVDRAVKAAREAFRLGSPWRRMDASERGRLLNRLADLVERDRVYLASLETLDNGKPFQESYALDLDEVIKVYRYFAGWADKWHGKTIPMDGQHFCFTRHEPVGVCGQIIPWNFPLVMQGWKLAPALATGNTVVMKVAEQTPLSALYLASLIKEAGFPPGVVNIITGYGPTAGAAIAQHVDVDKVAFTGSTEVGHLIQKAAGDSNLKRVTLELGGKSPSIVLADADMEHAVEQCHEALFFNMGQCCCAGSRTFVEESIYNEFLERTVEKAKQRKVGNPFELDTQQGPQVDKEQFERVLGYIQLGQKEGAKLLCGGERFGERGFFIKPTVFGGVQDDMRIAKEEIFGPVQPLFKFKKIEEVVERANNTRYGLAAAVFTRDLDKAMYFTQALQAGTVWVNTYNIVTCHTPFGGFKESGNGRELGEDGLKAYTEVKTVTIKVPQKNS

ALDH3A1 [4] = molecular target: T3, ALDH3A1 (Homo sapiens, UniProt P30838); experiment: Enzyme kinetics with DEAB as a substrate; conditions: ALDH3A1 oxidation of the substrate
T3 sequence (P30838 1-453): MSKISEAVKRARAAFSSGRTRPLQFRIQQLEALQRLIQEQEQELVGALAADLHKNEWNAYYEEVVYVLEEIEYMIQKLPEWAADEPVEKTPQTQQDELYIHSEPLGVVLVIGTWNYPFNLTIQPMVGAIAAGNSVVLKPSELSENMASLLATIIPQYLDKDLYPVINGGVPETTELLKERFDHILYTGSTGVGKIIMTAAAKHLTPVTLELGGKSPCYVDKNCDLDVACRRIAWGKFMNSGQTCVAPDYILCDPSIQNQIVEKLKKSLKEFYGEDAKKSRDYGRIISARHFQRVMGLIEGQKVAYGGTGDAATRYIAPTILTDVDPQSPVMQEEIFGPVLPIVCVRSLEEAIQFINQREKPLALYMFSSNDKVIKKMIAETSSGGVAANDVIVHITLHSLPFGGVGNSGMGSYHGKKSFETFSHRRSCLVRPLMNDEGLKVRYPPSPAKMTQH

ALDH1A3 [5] = molecular target: T4, ALDH1A3 (Homo sapiens, UniProt P47895); experiment: DEAB inhibition and IC50 determination; type: biochemical
T4 sequence (P47895 1-512): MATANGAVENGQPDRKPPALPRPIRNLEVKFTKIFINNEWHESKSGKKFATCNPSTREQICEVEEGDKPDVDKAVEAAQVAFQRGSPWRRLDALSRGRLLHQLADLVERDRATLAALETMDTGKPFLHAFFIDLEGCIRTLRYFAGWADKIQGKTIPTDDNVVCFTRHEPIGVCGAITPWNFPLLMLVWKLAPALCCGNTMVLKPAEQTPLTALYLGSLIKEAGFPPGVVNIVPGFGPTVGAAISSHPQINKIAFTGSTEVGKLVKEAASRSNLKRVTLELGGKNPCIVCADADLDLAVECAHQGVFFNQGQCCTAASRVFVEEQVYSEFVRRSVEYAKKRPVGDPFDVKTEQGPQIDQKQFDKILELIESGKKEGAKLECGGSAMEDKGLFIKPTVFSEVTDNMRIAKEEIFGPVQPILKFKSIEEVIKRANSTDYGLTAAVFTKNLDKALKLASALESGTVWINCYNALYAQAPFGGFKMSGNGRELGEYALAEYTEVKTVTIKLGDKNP

ALDH1B1 [6] = molecular target: T2, ALDH1B1; experiment: DEAB inhibition and IC50 determination; type: biochemical
ALDH3A1 [7] = molecular target: T3, ALDH3A1; experiment: Wavelength scans to monitor DEAB oxidation; type: biochemical; conditions: DEAB as substrate of ALDH3A1
ALDH1L1 [8] = molecular target: T5, ALDH1L1 (Rattus norvegicus, UniProt P28037); experiment: Wavelength scans to monitor DEAB oxidation; type: biochemical; conditions: DEAB as substrate of ALDH1L1
T5 sequence (P28037 417-902 limits assumed): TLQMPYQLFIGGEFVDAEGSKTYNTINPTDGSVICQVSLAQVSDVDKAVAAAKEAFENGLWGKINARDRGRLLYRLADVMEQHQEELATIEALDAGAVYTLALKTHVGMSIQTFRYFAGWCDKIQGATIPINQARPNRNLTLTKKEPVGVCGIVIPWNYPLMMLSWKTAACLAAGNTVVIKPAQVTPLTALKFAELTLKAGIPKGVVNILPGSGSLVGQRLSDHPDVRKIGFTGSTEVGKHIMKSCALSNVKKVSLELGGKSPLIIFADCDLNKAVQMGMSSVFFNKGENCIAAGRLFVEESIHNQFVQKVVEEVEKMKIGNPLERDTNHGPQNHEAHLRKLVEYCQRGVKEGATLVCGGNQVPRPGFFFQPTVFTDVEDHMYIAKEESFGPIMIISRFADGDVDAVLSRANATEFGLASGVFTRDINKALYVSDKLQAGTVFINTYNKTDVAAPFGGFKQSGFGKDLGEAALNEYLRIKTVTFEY

ALDH1A3 [9] = molecular target: T4, ALDH1A3; experiment: Wavelength scans to monitor DEAB oxidation; type: biochemical; conditions: DEAB as substrate of ALDH1A3
ALDH5A1 [10] = molecular target: T6, ALDH5A1 (Homo sapiens, UniProt P51649); experiment: DEAB inhibition and IC50 determination
T6 sequence (P51649 48-535): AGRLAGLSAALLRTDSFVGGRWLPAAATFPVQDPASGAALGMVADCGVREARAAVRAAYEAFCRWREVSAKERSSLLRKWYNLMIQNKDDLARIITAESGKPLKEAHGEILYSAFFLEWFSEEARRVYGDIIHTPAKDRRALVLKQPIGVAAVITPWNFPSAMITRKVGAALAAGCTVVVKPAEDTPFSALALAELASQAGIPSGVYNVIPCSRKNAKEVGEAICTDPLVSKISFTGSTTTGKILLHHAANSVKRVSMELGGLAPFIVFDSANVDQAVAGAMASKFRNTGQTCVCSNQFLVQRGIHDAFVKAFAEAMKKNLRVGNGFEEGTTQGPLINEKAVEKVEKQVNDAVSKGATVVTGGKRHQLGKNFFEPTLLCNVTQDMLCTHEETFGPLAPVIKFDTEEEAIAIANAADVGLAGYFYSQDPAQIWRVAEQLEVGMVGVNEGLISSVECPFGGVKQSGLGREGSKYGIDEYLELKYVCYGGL

ALDH1L1 [11] = molecular target: T5, ALDH1L1; experiment: DEAB inhibition and IC50 determination
ALDH1A2 [12] = molecular target: T1, ALDH1A2; experiment: Wavelength scans to monitor DEAB oxidation; type: biochemical; conditions: DEAB as substrate of ALDH1A2
ALDH5A1 [13] = molecular target: T6, ALDH5A1; experiment: Wavelength scans to monitor DEAB oxidation; type: biochemical; conditions: DEAB as substrate of ALDH5A1
ALDH4A1 [14] = molecular target: T7, ALDH4A1 (Homo sapiens, UniProt P30038); experiment: Wavelength scans to monitor DEAB oxidation; type: biochemical; conditions: DEAB as substrate of ALDH4A1
T7 sequence (P30038 25-563): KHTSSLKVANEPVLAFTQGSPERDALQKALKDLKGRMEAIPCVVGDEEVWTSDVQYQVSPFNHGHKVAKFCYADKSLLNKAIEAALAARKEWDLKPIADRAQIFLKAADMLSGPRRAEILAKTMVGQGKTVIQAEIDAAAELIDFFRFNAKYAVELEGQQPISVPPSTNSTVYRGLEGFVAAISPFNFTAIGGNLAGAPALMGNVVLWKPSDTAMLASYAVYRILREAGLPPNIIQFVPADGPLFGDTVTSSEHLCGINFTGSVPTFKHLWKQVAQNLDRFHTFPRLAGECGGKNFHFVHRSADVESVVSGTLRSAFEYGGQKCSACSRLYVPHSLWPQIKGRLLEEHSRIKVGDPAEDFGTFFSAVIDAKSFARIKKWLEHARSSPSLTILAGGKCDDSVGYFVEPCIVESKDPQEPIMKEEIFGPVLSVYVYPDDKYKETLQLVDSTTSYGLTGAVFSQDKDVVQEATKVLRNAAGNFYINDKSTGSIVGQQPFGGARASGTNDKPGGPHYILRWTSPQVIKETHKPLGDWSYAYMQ

ALDH1A2 [15] = molecular target: T1, ALDH1A2; experiment: Effect of dialysis on DEAB-induced inhibition; type: biochemical
ALDH1A2 [16] = molecular target: T1, ALDH1A2; experiment: Q-TOF mass spectrometry of enzyme modification by DEAB; type: binding; conditions: 5.0 μM ALDH1A2, 10 μM DEAB, without NAD+, 1 h
ALDH4A1 [17] = molecular target: T7, ALDH4A1; experiment: DEAB inhibition and IC50 determination

`CCN(CC)c1ccc(C=O)cc1` [DEAB] was tested, and the IC50 (ALDH1A2 [1]) was 1.2 ± 0.1 µM, the Mode of inhibition (ALDH1A2 [2]) was “Covalent inhibitor” and the Substrate (ALDH1B1 [3]) was “Yes (slow)”. The Km (ALDH3A1 [4]) was 5.6 ± 0.7 µM, the IC50 (ALDH1A3 [5]) was 3 ± 0.3 µM and the IC50 (ALDH1B1 [6]) was 1.2 ± 0.1 µM. For the same compound, the Substrate (ALDH3A1 [7]) was “Yes”, the Substrate (ALDH1L1 [8]) was “No” and the Substrate (ALDH1A3 [9]) was “Yes (slow)”. For the same compound, the IC50 (ALDH5A1 [10]) was 13 ± 0.5 µM, the IC50 (ALDH1L1 [11]) was greater than 20 µM and the Substrate (ALDH1A2 [12]) was “No”. For the same compound, the Substrate (ALDH5A1 [13]) was “Yes (slow)”, the Substrate (ALDH4A1 [14]) was “No” and the activity at 100 µM (ALDH1A2 [15]; 0.5 h, pH 7.5, read-out: activity recovered after dialysis) was 75%. The “recovery of enzymatic activity after dialysis” value (ALDH1A2 [15]; ALDH1A2, pre-incubated with DEAB and NAD+, dialyzed 4 h) was “neither the ALDH2 nor the ALDH1A2 samples regained enzymatic activity”, the “fraction of enzyme with DEAB bound” value (ALDH1A2 [16]) was “approximately one-third” and the IC50 (ALDH4A1 [17]) was greater than 20 µM.
